Here are results for 30 compounds from patent publication US8420655B2, “Benzimidazole inhibitors of leukotriene production” (Boehringer Ingelheim International GmbH, priority 2009, dated 2013).

The structures appear in SMILES notation.

One may read the IC50 as the concentration needed to halve the response being measured.

This experiment concerns the target T1, recombinant human FLAP protein (Homo sapiens, UniProt P20292).
T1 construct: made in house; host or cells: Sf9 insect cells (membrane fraction, 100,000 x g pellet)
T1 sequence (P20292 1-161): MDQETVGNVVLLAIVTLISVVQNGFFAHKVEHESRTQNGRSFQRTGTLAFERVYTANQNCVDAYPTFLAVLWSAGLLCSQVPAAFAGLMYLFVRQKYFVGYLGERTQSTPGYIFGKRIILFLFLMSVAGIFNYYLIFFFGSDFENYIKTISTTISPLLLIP
Kind of experiment: FLAP binding assay, displacement of iodinated (125I) FLAP inhibitor, Scintillation Proximity Assay format. As to conditions: [125I]L-691,831 probe, membrane protein from sf9 cells; read-out: hFLAP binding IC50. Here is the method:
Compounds are assessed for the ability to bind to FLAP in a binding assay that measures compound-specific displacement of an iodinated (^125I) FLAP inhibitor via a Scintillation Proximity Assay format (adapted from S. Charleson et al., Mol. Pharmacol., 1992, 41, 873-879).
Cell pellets produced from sf9 insect cells expressing recombinant human FLAP protein are resuspended in buffer A [15 mM Tris-HCl (pH 7.5), 2 mM MgCl2, 0.3 mM EDTA, 1 mM PMSF]. The cells are lysed with a Dounce homogenizer and the material is centrifuged at 10,000×g for 10 minutes. The supernatant is then collected and centrifuged at 100,000×g for 60 minutes. To prepare membrane protein for an assay, an aliquot of the 100,000×g pellet is resuspended in 1 ml of buffer A, Dounce homogenized, and finally subjected to polytron mixing (30 seconds). Membrane protein (25 μl, 5 μg) is mixed with WGA SPA beads (Amersham) and stirred for 1 h. To an assay plate (Perkin Elmer FlexiPlate) is added 25 μl of test compound prepared in Binding buffer [100 mM Tris (pH 7.5), 140 mM NaCl, 5% glycerol, 2 mM EDTA, 0.5 mM TCEP, 0.05% Tween 20], 25 μl of [^125I]L-691,831 (an iodinated analog of MK-591, Charleson et al. Mol. Pharmacol., 41, 873-879, 1992) and finally 50 μl of the bead/protein mixture. (final concentrations: beads, 200 μg/well; protein, 5 μg/well; [^125I] probe, 0 08 nM/well (17 nCi/well). The plates are shaken for 2 h before reading on a Microbeta plate reader. Non-specific binding is determined by the addition of 10 μM cold L-691,831 compound.
A general note: Scintillation proximity formats need no separation of bound from free tracer.
Consider `CC(C)(C)n1c(-c2ccccc2-n2cncn2)nc2cc(-c3cnc(N)nc3)ccc21`, for which the IC50 worked out at 2.7 nM. Take `CC(C)(C)n1c(-c2cc(C(F)(F)F)ccc2-n2cncn2)nc2cc(-c3cnc(N)nc3)ccc21`: the IC50 came to 2.4 nM.

`CC(C)(C)n1c(-c2cc(F)ccc2-n2cncn2)nc2cc(-c3cnc(N)nc3)ccc21`: the IC50 turned out to be 1.4 nM. Under `Cc1ccc(-n2cncn2)c(-c2nc3cc(-c4cnc(N)nc4)ccc3n2C(C)(C)C)c1` stands 1.6 nM.

Regarding `Cc1ccc(-n2cnc(C)n2)c(-c2nc3cc(-c4cnc(N)nc4)ccc3n2C(C)(C)C)c1`, the IC50 worked out at 1.7 nM.

Take `COc1ccc(-n2cccn2)c(-c2nc3cc(-c4cnc5[nH]ccc5c4)ccc3n2C(C)(C)C)c1` [1-tert-Butyl-2-(5-methoxy-2-pyrazol-1-yl-phenyl)-5-(1H-pyrrolo[2,3-b]pyridin-5-yl)-1H-benzimidazole]: the half-maximal inhibitory concentration (IC50) amounted to 1.1 nM. Next, `Cc1noc(-c2ccccc2-c2nc3cc(-c4cnc5[nH]ccc5c4)ccc3n2C(C)(C)C)n1` [1-tert-Butyl-2-[2-(3-methyl-1,2,4-oxadiazol-5-yl)-phenyl]-5-(1H-pyrrolo[2,3-b]pyridin-5-yl)-1H-benzimidazole]: 1.2 nM. On to `CC(C)(C)n1c(-c2ccccc2-n2cncn2)nc2cc(-c3cnc4c(c3)CCN4)ccc21` [1-tert-Butyl-5-(2,3-dihydro-1H-pyrrolo[2,3-b]pyridin-5-yl)-2-(2-1,2,4-triazol-1-yl-phenyl)-1H-benzimidazole], for which the IC50 turned out to be 2.1 nM. Next, `COc1ccc(-n2cccn2)c(-c2nc3cc(-c4cnc5c(c4)CCN5)ccc3n2C(C)(C)C)c1` [1-tert-Butyl-5-(2,3-dihydro-1H-pyrrolo[2,3-b]pyridin-5-yl)-2-(5-methoxy-2-pyrazol-1-yl-phenyl)-1H-benzimidazole]: 1.5 nM. Under `CCNC(=O)c1ncn(-c2ccc(C#N)cc2-c2nc3cc(-c4cnc(N)nc4)ccc3n2C(C)(C)C)n1` [1-{2-[5-(2-Amino-pyrimidin-5-yl)-1-tert-butyl-1H-benzoimidazol-2-yl]-4-cyano-phenyl}-1H-[1,2,4]triazole-3-carboxylic acid ethylamide] stands 29.5 nM; under `CC(C)COC(=O)c1ncn(-c2ccc(C#N)cc2-c2nc3cc(-c4cnc(N)nc4)ccc3n2C(C)(C)C)n1` [1-{2-[5-(2-Amino-pyrimidin-5-yl)-1-tert-butyl-1H-benzoimidazol-2-yl]-4-cyano-phenyl}-1H-[1,2,4]triazole-3-carboxylic acid isobutyl ester], 12.4 nM.

In the case of `COC(=O)c1ncn(-c2ccc(C#N)cc2-c2nc3cc(-c4cnc(N)nc4)ccc3n2C(C)(C)C)n1` [1-{2-[5-(2-Amino-pyrimidin-5-yl)-1-tert-butyl-1H-benzoimidazol-2-yl]-4-cyano-phenyl}-1H-[1,2,4]triazole-3-carboxylic acid methyl ester], the IC50 worked out at 15.9 nM. For the compound `CC(C)(C)n1c(-c2ccccc2-c2ncn(CCO)n2)nc2cc(-c3cnc(N)nc3)ccc21` [2-(3-{2-[5-(2-Amino-pyrimidin-5-yl)-1-tert-butyl-1H-benzoimidazol-2-yl]-phenyl}-[1,2,4]triazol-1-yl)-ethanol], the IC50 was found to be 5.8 nM. Regarding `COC(=O)C(C)(C)Oc1ccc(-c2nc3cc(-c4cnc(N)nc4)ccc3n2C(C)(C)C)c(-n2cncn2)c1` [2-{4-[5-(2-Amino-pyrimidin-5-yl)-1-tert-butyl-1H-benzoimidazol-2-yl]-3-[1,2,4]triazol-1-yl-phenoxy}-2-methyl-propionic acid methyl ester], the IC50 is 7.2 nM.

On to `CC(C)(Oc1ccc(-c2nc3cc(-c4cnc(N)nc4)ccc3n2C(C)(C)C)c(-n2cncn2)c1)C(=O)O` [2-{4-[5-(2-Amino-pyrimidin-5-yl)-1-tert-butyl-1H-benzoimidazol-2-yl]-3-[1,2,4]triazol-1-yl-phenoxy}-2-methyl-propionic acid], for which the IC50 turned out to be 5.5 nM. Under `CC(C)(C)n1c(-c2cc(C#N)ccc2-n2cncn2)nc2cc(-c3cnc(N)nc3)ccc21` [3-[5-(2-Amino-pyrimidin-5-yl)-1-tert-butyl-1H-benzimidazol-2-yl]-4-1,2,4-triazol-1-yl-benzonitrile] stands 3.1 nM. On to `Cc1ncn(-c2ccc(C#N)cc2-c2nc3cc(-c4cnc(N)nc4)ccc3n2C(C)(C)C)n1` [3-[5-(2-Amino-pyrimidin-5-yl)-1-tert-butyl-1H-benzimidazol-2-yl]-4-(3-methyl-1,2,4-triazol-1-yl)-benzonitrile], for which the IC50 worked out at 3 nM. Next, `Cc1nc(C)n(-c2ccc(C#N)cc2-c2nc3cc(-c4cnc(N)nc4)ccc3n2C(C)(C)C)n1` [3-[5-(2-Amino-pyrimidin-5-yl)-1-tert-butyl-1H-benzoimidazol-2-yl]-4-(3,5-dimethyl-[1,2,4]triazol-1-yl)-benzonitrile]: 2.5 nM; `CC(C)(C)n1c(-c2cc(C#N)ccc2-n2cnc(Br)n2)nc2cc(-c3cnc(N)nc3)ccc21` [3-[5-(2-Amino-pyrimidin-5-yl)-1-tert-butyl-1H-benzoimidazol-2-yl]-4-(3-bromo-[1,2,4]triazol-1-yl)-benzonitrile]: 0.83 nM. Next, `Cc1ccn(-c2ccc(C#N)cc2-c2nc3cc(-c4cnc(N)nc4)ccc3n2C(C)(C)C)n1` [3-[5-(2-Amino-pyrimidin-5-yl)-1-tert-butyl-1H-benzoimidazol-2-yl]-4-(3-methyl-pyrazol-1-yl)-benzonitrile]: 1.8 nM; `Cc1ccnn1-c1ccc(C#N)cc1-c1nc2cc(-c3cnc(N)nc3)ccc2n1C(C)(C)C` [3-[5-(2-Amino-pyrimidin-5-yl)-1-tert-butyl-1H-benzoimidazol-2-yl]-4-(5-methyl-pyrazol-1-yl)-benzonitrile]: 1.3 nM.

For `COC(=O)c1ccc(-n2cncn2)c(-c2nc3cc(-c4cnc(N)nc4)ccc3n2C(C)(C)C)c1` [3-[5-(2-Amino-pyrimidin-5-yl)-1-tert-butyl-1H-benzoimidazol-2-yl]-4-[1,2,4]triazol-1-yl-benzoic acid methyl ester], the IC50 amounted to 2.7 nM. Consider `CC(C)(C)n1c(-c2cc(C#N)ccc2-n2cnc(-c3ccccc3Cl)n2)nc2cc(-c3cnc(N)nc3)ccc21` [3-[5-(2-Amino-pyrimidin-5-yl)-1-tert-butyl-1H-benzoimidazol-2-yl]-4-[3-(2-chloro-phenyl)-[1,2,4]triazol-1-yl]-benzonitrile], for which the IC50 stood at 4.4 nM. Next, `CNC(=O)c1ccc(-n2cncn2)c(-c2nc3cc(-c4cnc(N)nc4)ccc3n2C(C)(C)C)c1` [3-[5-(2-Amino-pyrimidin-5-yl)-1-tert-butyl-1H-benzoimidazol-2-yl]-N-methyl-4-[1,2,4]triazol-1-yl-benzamide]: 20 nM. Next, `CC(C)(COc1ccc(-n2cncn2)c(-c2nc3cc(-c4cnc(N)nc4)ccc3n2C(C)(C)C)c1)C(=O)O` [3-{3-[5-(2-Amino-pyrimidin-5-yl)-1-tert-butyl-1H-benzimidazol-2-yl]-4-1,2,4-triazol-1-yl-phenoxy}-2,2-dimethyl-propionic acid]: 5.9 nM; `CCOC(=O)C(C)(C)COc1ccc(-c2nc3cc(-c4cnc(N)nc4)ccc3n2C(C)(C)C)c(-n2cncn2)c1` [3-{4-[5-(2-Amino-pyrimidin-5-yl)-1-tert-butyl-1H-benzoimidazol-2-yl]-3-[1,2,4]triazol-1-yl-phenoxy}-2,2-dimethyl-propionic acid ethyl ester]: 2.7 nM; `CC(C)(COc1ccc(-c2nc3cc(-c4cnc(N)nc4)ccc3n2C(C)(C)C)c(-n2cncn2)c1)C(=O)O` [3-{4-[5-(2-Amino-pyrimidin-5-yl)-1-tert-butyl-1H-benzoimidazol-2-yl]-3-[1,2,4]triazol-1-yl-phenoxy}-2,2-dimethyl-propionic acid]: 4 nM. On to `COC(=O)c1cc(-c2ccc(-n3cncn3)c(-c3nc4cc(-c5cnc(N)nc5)ccc4n3C(C)(C)C)c2)cs1` [4-{3-[5-(2-Amino-pyrimidin-5-yl)-1-tert-butyl-1H-benzoimidazol-2-yl]-4-[1,2,4]triazol-1-yl-phenyl}-thiophene-2-carboxylic acid methyl ester], for which the IC50 worked out at 5.2 nM. Under `CC(C)(C)n1c(-c2cc(-c3csc(C(=O)O)c3)ccc2-n2cncn2)nc2cc(-c3cnc(N)nc3)ccc21` [4-{3-[5-(2-Amino-pyrimidin-5-yl)-1-tert-butyl-1H-benzoimidazol-2-yl]-4-[1,2,4]triazol-1-yl-phenyl}-thiophene-2-carboxylic acid] stands 10.6 nM; under `COCCn1cnc(-c2ccccc2-c2nc3cc(-c4cnc(N)nc4)ccc3n2C(C)(C)C)n1` [5-(1-tert-Butyl-2-{2-[1-(2-methoxy-ethyl)-1H-[1,2,4]triazol-3-yl]-phenyl}-1H-benzoimidazol-5-yl)-pyrimidin-2-ylamine], 3.3 nM.
